Data on 22 compounds can be found in patent US11981677B2, “Further substituted triazolo quinoxaline derivatives” (Grünenthal GmbH, priority 2018, dated 2024).

The assay deals with T1, Glucocorticoid Receptor (Homo sapiens, UniProt P04150).
T1 construct: expressed in transfected cells
T1 sequence (P04150 524-758 limits assumed): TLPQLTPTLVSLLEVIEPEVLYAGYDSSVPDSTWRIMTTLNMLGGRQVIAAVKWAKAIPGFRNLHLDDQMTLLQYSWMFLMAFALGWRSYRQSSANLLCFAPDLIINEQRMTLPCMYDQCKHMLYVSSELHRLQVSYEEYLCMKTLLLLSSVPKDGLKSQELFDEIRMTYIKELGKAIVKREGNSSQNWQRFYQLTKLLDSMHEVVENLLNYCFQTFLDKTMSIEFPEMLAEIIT
Nature of the assay: Agonistic mode of action on the glucocorticoid receptor (CHO-Gal4/GR luciferase reporter cell line). Format: cell-based. The following applies: CHO-Gal4/GR luciferase reporter cells; observed in the agonistic assay or the antagonistic assay (mode not given); read-out: IC50 or EC50 range. In short, it runs like this: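 CHO cells stably expressing GAL4 DBD–GR ligand-binding domain fusion with GAL4-UAS firefly luciferase reporter, seeded 24 h, then treated in Opti-MEM with 8 half-log concentrations from 10 μM to 0.003 μM (0.5% DMSO), quadruplicate. Luminescence read on FLIPR after lysis with Triton/luciferin; EC50 calculated.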

The structures appear in SMILES notation.

`Cc1nnc2n1-c1c(c(F)c(F)c(-c3cc(F)cc4[nH]ccc34)c1C(F)(F)F)NC2(C)C` [Example 516, 6,7-Difluoro-8-(6-fluoro-1H-indol-4-yl)-1,4,4-trimethyl-9-(trifluoromethyl)-5H-[1,2,4]triazolo[4,3-a]quinoxaline]: the IC50 or EC50 (antagonist or agonist mode, not stated per compound) was less than 100 nM.

Consider `Cc1c(-c2cccc3c2ccn3C2CC2)cc(F)c2c1-n1c(C)nnc1C(C)(C)N2` [Example 305, 8-(1-Cyclopropyl-1H-indol-4-yl)-6-fluoro-1,4,4,9-tetramethyl-5H-[1,2,4]triazolo[4,3-a]quinoxaline], for which the IC50 or EC50 (antagonist or agonist mode, not stated per compound) is less than 100 nM.

Regarding `Cc1c(-c2cccc3c2cnn3C)cc(F)c2c1-n1c(C)nnc1C(C)(C)N2` [Example 304, 6-Fluoro-1,4,4,9-tetramethyl-8-(1-methyl-1H-indazol-4-yl)-5H-[1,2,4]triazolo[4,3-a]quinoxaline], the IC50 or EC50 (antagonist or agonist mode, not stated per compound) is 100 to 1000 nM.

As for `Cc1c(-c2cc(F)cc3c(C)c[nH]c23)c(F)c(Cl)c2c1-n1c(C)nnc1C(C)(C)N2` [Example 508, 6-Chloro-7-fluoro-8-(5-fluoro-3-methyl-1H-indol-7-yl)-1,4,4,9-tetramethyl-5H-[1,2,4]triazolo[4,3-a]quinoxaline], the IC50 or EC50 (antagonist or agonist mode, not stated per compound) fell in the range of 100 to 1000 nM.

In the case of `COCCn1ccc2c(-c3cc(F)c4c(c3C)-n3c(C)nnc3C(C)(C)N4)cccc21` [Example 300, 6-Fluoro-8-[1-(2-methoxy-ethyl)-1H-indol-4-yl]-1,4,4,9-tetramethyl-5H-[1,2,4]triazolo[4,3-a]quinoxaline], the IC50 or EC50 (antagonist or agonist mode, not stated per compound) was 100 to 1000 nM.

Consider `CCc1nnc2n1-c1c(C)c(-c3cccc4c(C)c[nH]c34)cc(F)c1NC2(C)C` [Example 355, 1-Ethyl-6-fluoro-4,4,9-trimethyl-8-(3-methyl-1H-indol-7-yl)-5H-[1,2,4]triazolo[4,3-a]quinoxaline], for which the IC50 or EC50 (antagonist or agonist mode, not stated per compound) lay in the range of 100 to 1000 nM.

In the case of `COc1c(-c2cccc3c2ccn3S(C)(=O)=O)cc(Cl)c2c1-n1c(C)nnc1C(C)(C)N2` [Example 482, 6-Chloro-9-methoxy-1,4,4-trimethyl-8-(1-methylsulfonyl-1H-indol-4-yl)-5H-[1,2,4]triazolo[4,3-a]quinoxaline], the IC50 or EC50 (antagonist or agonist mode, not stated per compound) was in the range of 100 to 1000 nM.

Consider `CCc1nnc2n1-c1c(C)c(-c3cc(F)cc4c(C)c[nH]c34)cc(F)c1NC2(C)C` [Example 316, 1-Ethyl-6-fluoro-8-(5-fluoro-3-methyl-1H-indol-7-yl)-4,4,9-trimethyl-5H-[1,2,4]triazolo[4,3-a]quinoxaline], for which the IC50 or EC50 (antagonist or agonist mode, not stated per compound) was 100 to 1000 nM.

As to `CCS(=O)(=O)n1ccc2c(-c3c(C)c4c(c(F)c3F)NC(C)(C)c3nnc(C)n3-4)cc(F)cc21` [Example 446, 8-(1-(ethylsulfonyl)-6-fluoro-1H-indol-4-yl)-6,7-difluoro-1,4,4,9-tetramethyl-4,5-dihydro-[1,2,4]triazolo[4,3-a]quinoxaline], the IC50 or EC50 (antagonist or agonist mode, not stated per compound) was less than 100 nM.

Take `COc1c(-c2cc(F)cc3c2ccn3S(C)(=O)=O)cc(F)c2c1-n1c(C)nnc1C(C)(C)N2` [Example 56, 6-Fluoro-8-(6-fluoro-1-methylsulfonyl-1H-indol-4-yl)-9-methoxy-1,4,4-trimethyl-5H-[1,2,4]triazolo[4,3-a]quinoxaline]: the IC50 or EC50 (antagonist or agonist mode, not stated per compound) fell in the range of 100 to 1000 nM.

In the case of `CCc1c(-c2cc(F)cc3c2ccn3S(C)(=O)=O)cc(F)c2c1-n1c(C)nnc1C(C)(C)N2` [Example 48, 9-Ethyl-6-fluoro-8-(6-fluoro-1-methylsulfonyl-1H-indol-4-yl)-1,4,4-trimethyl-5H-[1,2,4]triazolo[4,3-a]quinoxaline], the IC50 or EC50 (antagonist or agonist mode, not stated per compound) is less than 100 nM.

As to `Cc1c(-c2cc(F)cc3c2ccn3CCO)cc(F)c2c1-n1c(C3CC3)nnc1C(C)(C)N2` [Example 65, 2-[4-(1-Cyclopropyl-6-fluoro-4,4,9-trimethyl-5H-[1,2,4]triazolo[4,3-a]quinoxalin-8-yl)-6-fluoro-1H-indol-1-yl]-EtOH], the IC50 or EC50 (antagonist or agonist mode, not stated per compound) lay within 1000 to 15000 nM.

On to `Cc1c(-c2cccc3c2ccn3S(=O)(=O)C(C)C)cc(F)c2c1-n1c(C)nnc1C(C)(C)N2` [Example 366, 6-Fluoro-8-[1-(isopropylsulfonyl)-1H-indol-4-yl]-1,4,4,9-tetramethyl-5H-[1,2,4]triazolo[4,3-a]quinoxaline], for which the IC50 or EC50 (antagonist or agonist mode, not stated per compound) lay in the range of 1000 to 15000 nM.

For the compound `Cc1c(-c2cccc3c2ccn3S(=O)(=O)CF)cc(F)c2c1-n1c(C)nnc1C(C)(C)N2` [Example 349, 6-Fluoro-8-[1-(fluoro-methylsulfonyl)-1H-indol-4-yl]-1,4,4,9-tetramethyl-5H-[1,2,4]triazolo[4,3-a]quinoxaline], the IC50 or EC50 (antagonist or agonist mode, not stated per compound) was 100 to 1000 nM.

Consider `COc1c(-c2cc(F)cc3c2ccn3CCO)cc(F)c2c1-n1c(C)nnc1C(C)(C)N2` [Example 55, 2-[6-Fluoro-4-(6-fluoro-9-methoxy-1,4,4-trimethyl-5H-[1,2,4]triazolo[4,3-a]quinoxalin-8-yl)-1H-indol-1-yl]-EtOH], for which the IC50 or EC50 (antagonist or agonist mode, not stated per compound) was in the range of 100 to 1000 nM.

Regarding `COc1c(-c2ccc(F)c3[nH]ccc23)cc(F)c2c1-n1c(C)nnc1C(C)(C)N2` [Example 494, 6-Fluoro-8-(7-fluoro-1H-indol-4-yl)-9-methoxy-1,4,4-trimethyl-5H-[1,2,4]triazolo[4,3-a]quinoxaline], the IC50 or EC50 (antagonist or agonist mode, not stated per compound) lay within 100 to 1000 nM.

For `Cc1c(-c2cc(F)cc3c2ccn3CCO)c(F)c(F)c2c1-n1c(C)nnc1C(C)(C)N2` [Example 449, 2-[4-(6,7-Difluoro-1,4,4,9-tetramethyl-5H-[1,2,4]triazolo[4,3-a]quinoxalin-8-yl)-6-fluoro-1H-indol-1-yl]-EtOH], the IC50 or EC50 (antagonist or agonist mode, not stated per compound) lay within 100 to 1000 nM.

Regarding `CCc1c(-c2cc(F)cc3c2ccn3CCO)cc(F)c2c1-n1c(C)nnc1C(C)(C)N2` [Example 464, 2-[4-(9-Ethyl-6-fluoro-1,4,4-trimethyl-5H-[1,2,4]triazolo[4,3-a]quinoxalin-8-yl)-6-fluoro-1H-indol-1-yl]-EtOH], the IC50 or EC50 (antagonist or agonist mode, not stated per compound) was 100 to 1000 nM.

As to `Cc1c(-c2cccc3c2ccn3CCO)cc(F)c2c1-n1c(C)nnc1C(C)(C)N2` [Example 301, 2-[4-(6-Fluoro-1,4,4,9-tetramethyl-5H-[1,2,4]triazolo[4,3-a]quinoxalin-8-yl)-1H-indol-1-yl]-EtOH], the IC50 or EC50 (antagonist or agonist mode, not stated per compound) was in the range of 100 to 1000 nM.

As for `Cc1c(-c2cccc3c2ccn3CCN(C)C)cc(F)c2c1-n1c(C)nnc1C(C)(C)N2` [Example 375, [2-[4-(6-Fluoro-1,4,4,9-tetramethyl-5H-[1,2,4]triazolo[4,3-a]quinoxalin-8-yl)-1H-indol-1-yl]-ethyl]-dimethyl-amine], the IC50 or EC50 (antagonist or agonist mode, not stated per compound) was in the range of 100 to 1000 nM.

With `Cc1c(-c2cc(F)cc3[nH]ncc23)cc(F)c2c1-n1c(C)nnc1C(C)(C)N2` [Example 496, 6-Fluoro-8-(6-fluoro-1H-indazol-4-yl)-1,4,4,9-tetramethyl-5H-[1,2,4]triazolo[4,3-a]quinoxaline], the IC50 or EC50 (antagonist or agonist mode, not stated per compound) lay in the range of 100 to 1000 nM.

For `Cc1c(-c2cccc3c2ccn3C)cc(F)c2c1-n1c(C)nnc1C(C)(C)N2` [Example 484, 6-Fluoro-1,4,4,9-tetramethyl-8-(1-methyl-1H-indol-4-yl)-5H-[1,2,4]triazolo[4,3-a]quinoxaline], the IC50 or EC50 (antagonist or agonist mode, not stated per compound) was less than 100 nM.
